Values quoted from earlier work as cited in US20250194589A1, “AGROCHEMICAL EMULSIFIABLE COMPOSITION” (priority 2022, published 2025).
Where two headings read alike, the source gives them in different places.

Key:
[1] = not given; remark: listed apart in the source
[2] = measurement method: Flask shaking

Molecule | LogPow [2] | Degree of water-solubility ([1]; 20° C.) [ng/mL] | LogPow (measurement method not printed) | further results
FC(F)(F)c1ccc(OCCCOc2c(Cl)cc(OCC=C(Cl)Cl)cc2Cl)nc1 [Pyridalyl] |  |  |  | LogPow (measurement method: HPLC): 8.1; Degree of water-solubility ([1]; 25° C.): 0.15 ng/mL
CCC(C)(C)C(=O)OC1=C(c2ccc(Cl)cc2Cl)C(=O)OC12CCCCC2 [Spirodiclofen] | 5.83 | 50 |  | 
CCCOc1cc(C(F)(F)F)ccc1O[C@H]1C[C@H]2CCC[C@@H](C1)N2Oc1ccc(C(F)(F)F)cn1 [Acynonapyr] |  | 0.889 | 6.5 | 
Cc1c(F)c(F)c(COC(=O)[C@@H]2[C@H](/C=C(\Cl)C(F)(F)F)C2(C)C)c(F)c1F (racemic) [Tefluthrin] |  |  | 6.4 | 
Lepimectin |  |  |  | LogPow (measurement method: HPLC): 6.5; Degree of water-solubility ([1]; 25° C.): 103.47 ng/mL
CCc1nn(C)c(C(=O)NCc2ccc(C(C)(C)C)cc2)c1Cl [Tebufenpyrad] | 4.93 |  |  | 
COCCOC(=O)C(C#N)(C(=O)c1ccccc1C(F)(F)F)c1ccc(C(C)(C)C)cc1 (stereo not drawn) [Cyflumetofen] |  |  |  | LogPow (measurement method: HPLC): 4.3
Milbemectin [Milbemectin (M.A3)] | >4.94 | 880 |  | 
CCOc1cc(C(C)(C)C)ccc1C1COC(c2c(F)cccc2F)=N1 (stereo not drawn) [Etoxazole] |  | 70.4 | 5.52 ± 0.58 | 
CC1(C)C(C=C(Cl)Cl)C1C(=O)OCc1cccc(Oc2ccccc2)c1 (stereo not drawn) [Permethrin] | 6.36 |  |  | 
Milbemectin [Milbemectin (M.A4)] | >5.06 | 7200 |  | 
CCc1nn(C)c(C(=O)NCc2ccc(Oc3ccc(C)cc3)cc2)c1Cl [Tolfenpyrad] | 5.6 |  | Tolfenpyrad (LogPow = 5.61) | LogPow (measurement method not printed, listed as tolfenpyrad): 5.61; Degree of water-solubility ([1]; 25° C.): 87 ng/mL
COC(c1ccc(N(C(=O)c2c(C)nn(C)c2C)C(=O)C(C)C)cc1CC(C)C)(C(F)(F)F)C(F)(F)F [Pyflubumide] | 5.34 | 270 |  | 
CCOP(=S)(OCC)Oc1nc(Cl)c(Cl)cc1Cl [Chlorpyrifos] | 4.70 |  |  | Degree of water-solubility ([1]; 25° C.): 941 ng/mL
CCOc1ccc(C(C)(C)COCc2cccc(Oc3ccccc3)c2)cc1 [Etofenprox] |  | 22.5 |  | LogPow (measurement method: HPLC): 6.9
Cc1ccc(/N=C/N(C)/C=N/c2ccc(C)cc2C)c(C)c1 [Amitraz] |  |  | 5.5 | Degree of water-solubility ([1]; 25° C.): 94 ng/mL
CON=CNC(=O)c1ccc(C2=NOC(c3cc(Cl)cc(Cl)c3)(C(F)(F)F)C2)cc1C (stereo not drawn) [Fluxametamide] |  | 54 |  | LogPow (measurement method: HPLC): 5.0
ClC1=C(Cl)C(Cl)(C2(Cl)C(Cl)=C(Cl)C(Cl)=C2Cl)C(Cl)=C1Cl [Dienochlor] |  |  | 7.2 | Degree of water-solubility ([1]; 25° C.): 26 ng/mL
C/C(=N\C#N)N(C)Cc1ccc(Cl)nc1 [Acetamiprid, acetamiprid] |  |  | Acetamiprid (LogPow = 0.8) | LogPow (measurement method not printed, listed as acetamiprid): 0.8
O=C(NC(=O)c1c(F)cccc1F)Nc1ccc(OC(F)(F)C(F)OC(F)(F)F)c(Cl)c1 (stereo not drawn) [Novaluron] |  | 3 |  | LogPow (measurement method: HPLC): 4.3
CC(C)(C)c1ccc(CCOc2ncnc3ccccc23)cc1 [Fenazaquin] |  |  | 5.71 | 

Molecule | LogPow [2] | Degree of water-solubility ([1]; 20° C.) [ng/mL] | LogPow (measurement method not printed) | further results
CC1(C)[C@H](C(=O)O[C@H](C#N)c2cccc(Oc3ccccc3)c2)[C@@H]1/C=C\C(=O)OC(C(F)(F)F)C(F)(F)F [Acrinathrin] | 5.6 |  |  | 
CCCSP(=S)(OCC)Oc1ccc(Cl)cc1Cl (stereo not drawn) [Prothiofos] | 5.67 |  |  | 
CCCSP(=O)(OCC)Oc1ccc(Br)cc1Cl (stereo not drawn) [Profenofos] |  |  | 4.435 | 
Cc1nn(C)c(/C(OC(=O)C(C)(C)C)=C(\C#N)c2ccc(C(C)(C)C)cc2)c1C [Cyenopyrafen] |  | 300 |  | LogPow (measurement method: HPLC): 5.6
Pyrethrin |  |  | 5.6 | Degree of water-solubility ([1]; temperature not given): 9000 ng/mL
Cc1cc(C)c(C2=C(OC(=O)CC(C)(C)C)C3(CCCC3)OC2=O)c(C)c1 [Spiromesifen] |  | 130 |  | LogPow (measurement method: HPLC): 4.55
CCOP(=O)(SC(C)CC)SC(C)CC (stereo not drawn) [Cadusafos] |  |  |  | LogPow (measurement method: HPLC): 4.08
CCCCN(CCCC)SN(C)C(=O)Oc1cccc2c1OC(C)(C)C2 [Carbosulfan] |  |  | 5.45 | Degree of water-solubility ([1]; 25° C.): 3000 ng/mL
CCOC(=O)CCN(SN(C)C(=O)Oc1cccc2c1OC(C)(C)C2)C(C)C [Benfuracarb] | 4.22 |  |  | 
CC1(C)C(/C=C(\Cl)C(F)(F)F)C1C(=O)OC(C#N)c1cccc(Oc2ccccc2)c1 (stereo not drawn) [Cyhalothrin] |  | 4.2 | 6.9 | 
CC(C)[C@H](Nc1ccc(C(F)(F)F)cc1Cl)C(=O)OC(C#N)c1cccc(Oc2ccccc2)c1 (stereo partly drawn) [Fluvalinate] | 4.26 | 1.12 |  | 
CC1(C)C(C=C(Cl)Cl)C1C(=O)OC(C#N)c1ccc(F)c(Oc2ccccc2)c1 (stereo not drawn) [Cyfluthrin] |  |  | 6.00 | 
CC(C)C(C(=O)OC(C#N)c1cccc(Oc2ccccc2)c1)c1ccc(Cl)cc1 (stereo not drawn) [Fenvalerate] |  |  | 6.53 | 
CC(C)[C@H](C(=O)OC(C#N)c1cccc(Oc2ccccc2)c1)c1ccc(OC(F)F)cc1 (stereo partly drawn) [Flucythrinate] |  |  | 4.74 | 
Emamectin benzoate |  |  | 5.7 | 
COC(=O)N(C(=O)N1CO[C@@]2(C(=O)OC)Cc3cc(Cl)ccc3C2=N1)c1ccc(OC(F)(F)F)cc1 [Indoxacarb] | 4.65 |  |  | Degree of water-solubility ([1]; 25° C.): 200 ng/mL
Clc1ccccc1-c1nnc(-c2ccccc2Cl)nn1 [Clofentezine] |  |  |  | LogPow (measurement method: HPLC): 4.1
Cc1c(COC(=O)[C@@H]2[C@H](/C=C(\Cl)C(F)(F)F)C2(C)C)cccc1-c1ccccc1 (racemic) [Bifenthrin] |  |  |  | LogPow (measurement method: HPLC): 6.6; Degree of water-solubility ([1]; 20-25° C.): <0.1 ng/mL
Abamectin | 4.4 ± 0.3 |  |  | Degree of water-solubility ([1]; 25° C.): 1210 ng/mL
O=C(NC(=O)c1c(F)cccc1F)Nc1cc(Cl)c(OC(F)(F)C(F)C(F)(F)F)cc1Cl (stereo not drawn) [Lufenuron] |  |  |  | LogPow (measurement method: HPLC): 5.12; Degree of water-solubility ([1]; 25° C.): <60 ng/mL
